According to the kinase profiling compilation of Christmann-Franck et al. (2016):

What was measured:
Test in all cases: KINOMEscan competition binding
Settings in all cases: compound 2.0 µM
ADCK3 (human) = ADCK3 (human) (UniProt Q8NI60)
BLK (human) = BLK (human) (UniProt P51451)
CAMKK2 (human) = CAMKK2 (human) (UniProt Q96RR4)
CDK11B (human) = CDK11B (human) (UniProt P21127)
CDK15 (human) = CDK15 (human) (UniProt Q96Q40)
CDK18 (human) = CDK18 (human) (UniProt Q07002)
CHEK1 (human) = CHEK1 (human) (UniProt O14757)
CHEK2 (human) = CHEK2 (human) (UniProt O96017)
CSNK1G1 (human) = CSNK1G1 (human) (UniProt Q9HCP0)
DAPK3 (human) = DAPK3 (human) (UniProt O43293)
[1] = tested on: EGFR (human), P00533 [747-751 del / S ins]
[2] = tested on: EGFR (human), P00533 [L861Q]
FER (human) = FER (human) (UniProt P16591)
FRK (human) = FRK (human) (UniProt P42685)
HIPK3 (human) = HIPK3 (human) (UniProt Q9H422)
[3] = tested on: KIT (human), P10721 [L576P]
[4] = tested on: KIT (human), P10721 [V559D/T670I]
LCK (human) = LCK (human) (UniProt P06239)
MAP2K6 (human) = MAP2K6 (human) (UniProt P52564)
MAP3K10 (human) = MAP3K10 (human) (UniProt Q02779)
MAP3K11 (human) = MAP3K11 (human) (UniProt Q16584)
MAP3K2 (human) = MAP3K2 (human) (UniProt Q9Y2U5)
MAP4K1 (human) = MAP4K1 (human) (UniProt Q92918)
MAP4K5 (human) = MAP4K5 (human) (UniProt Q9Y4K4)
MAPK13 (human) = MAPK13 (human) (UniProt O15264)
MAPK9 (human) = MAPK9 (human) (UniProt P45984)
MAPKAPK2 (human) = MAPKAPK2 (human) (UniProt P49137)
MAPKAPK5 (human) = MAPKAPK5 (human) (UniProt Q8IW41)
MARK3 (human) = MARK3 (human) (UniProt P27448)
MATK (human) = MATK (human) (UniProt P42679)
MKNK1 (human) = MKNK1 (human) (UniProt Q9BUB5)
MYLK3 (human) = MYLK3 (human) (UniProt Q32MK0)
MYLK4 (human) = MYLK4 (human) (UniProt Q86YV6)
NEK6 (human) = NEK6 (human) (UniProt Q9HC98)
PAK6 (human) = PAK6 (human) (UniProt Q9NQU5)
[5] = tested on: PIK3CA (human), P42336 [H1047L]
PKN1 (human) = PKN1 (human) (UniProt Q16512)
RIOK3 (human) = RIOK3 (human) (UniProt O14730)
SRPK3 (human) = SRPK3 (human) (UniProt Q9UPE1)
STK36 (human) = STK36 (human) (UniProt Q9NRP7)
TXK (human) = TXK (human) (UniProt P42681)
[6] = biological target: TYK2 JH1 catalytic (human) (UniProt P29597)
WEE2 (human) = WEE2 (human) (UniProt P0C1S8)

Sequence of STK36 (human) (Q9NRP7 whole entry, looked up): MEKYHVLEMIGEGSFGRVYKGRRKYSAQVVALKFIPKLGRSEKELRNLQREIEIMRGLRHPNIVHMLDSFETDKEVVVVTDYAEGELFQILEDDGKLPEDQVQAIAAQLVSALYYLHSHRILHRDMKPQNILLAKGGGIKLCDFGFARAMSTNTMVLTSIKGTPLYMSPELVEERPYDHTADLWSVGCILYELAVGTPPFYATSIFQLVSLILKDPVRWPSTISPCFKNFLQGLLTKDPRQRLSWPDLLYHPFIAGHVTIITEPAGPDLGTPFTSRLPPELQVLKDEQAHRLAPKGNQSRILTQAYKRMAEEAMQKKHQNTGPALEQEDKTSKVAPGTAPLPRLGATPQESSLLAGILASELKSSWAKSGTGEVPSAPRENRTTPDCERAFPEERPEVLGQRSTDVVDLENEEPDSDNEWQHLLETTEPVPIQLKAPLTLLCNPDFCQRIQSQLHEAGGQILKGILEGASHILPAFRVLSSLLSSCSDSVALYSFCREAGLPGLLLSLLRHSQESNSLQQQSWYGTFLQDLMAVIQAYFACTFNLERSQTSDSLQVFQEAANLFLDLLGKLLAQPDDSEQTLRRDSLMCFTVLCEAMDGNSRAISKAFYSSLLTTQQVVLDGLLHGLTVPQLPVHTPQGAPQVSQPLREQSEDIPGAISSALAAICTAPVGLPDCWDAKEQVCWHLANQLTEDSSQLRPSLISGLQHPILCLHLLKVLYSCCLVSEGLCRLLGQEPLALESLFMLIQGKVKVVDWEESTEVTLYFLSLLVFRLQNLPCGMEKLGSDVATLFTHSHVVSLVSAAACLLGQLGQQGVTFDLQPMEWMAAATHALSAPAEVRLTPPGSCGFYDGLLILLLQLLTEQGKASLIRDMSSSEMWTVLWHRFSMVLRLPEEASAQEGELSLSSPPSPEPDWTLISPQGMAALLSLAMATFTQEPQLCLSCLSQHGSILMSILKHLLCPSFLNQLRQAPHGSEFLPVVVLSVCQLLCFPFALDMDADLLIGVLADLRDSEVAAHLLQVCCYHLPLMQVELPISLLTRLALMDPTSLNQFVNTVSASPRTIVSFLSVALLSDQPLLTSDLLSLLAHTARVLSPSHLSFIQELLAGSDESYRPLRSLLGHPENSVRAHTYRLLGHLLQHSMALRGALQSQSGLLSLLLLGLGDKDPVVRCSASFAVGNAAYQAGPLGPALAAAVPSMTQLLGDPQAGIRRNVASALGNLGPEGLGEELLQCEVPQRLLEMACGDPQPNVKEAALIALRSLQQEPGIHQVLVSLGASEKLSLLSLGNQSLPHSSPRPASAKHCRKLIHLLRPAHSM
Sequence of SRPK3 (human) (Q9UPE1 whole entry, looked up): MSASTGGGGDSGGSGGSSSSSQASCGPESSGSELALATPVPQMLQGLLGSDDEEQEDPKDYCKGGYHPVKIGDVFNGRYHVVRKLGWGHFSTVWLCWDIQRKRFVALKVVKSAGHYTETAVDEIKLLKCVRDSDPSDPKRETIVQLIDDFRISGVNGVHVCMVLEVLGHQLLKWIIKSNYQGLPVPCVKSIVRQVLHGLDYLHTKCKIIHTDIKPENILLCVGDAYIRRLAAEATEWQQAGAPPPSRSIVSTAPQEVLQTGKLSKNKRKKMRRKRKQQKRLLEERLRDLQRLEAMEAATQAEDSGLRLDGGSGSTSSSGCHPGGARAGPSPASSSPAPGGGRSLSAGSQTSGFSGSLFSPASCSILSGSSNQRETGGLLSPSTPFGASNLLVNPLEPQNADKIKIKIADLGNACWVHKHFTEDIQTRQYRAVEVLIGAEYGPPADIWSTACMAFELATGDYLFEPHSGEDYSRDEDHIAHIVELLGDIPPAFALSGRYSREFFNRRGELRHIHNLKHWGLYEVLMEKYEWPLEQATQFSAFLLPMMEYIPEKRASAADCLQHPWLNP
Sequence of NEK6 (human) (Q9HC98 whole entry, looked up): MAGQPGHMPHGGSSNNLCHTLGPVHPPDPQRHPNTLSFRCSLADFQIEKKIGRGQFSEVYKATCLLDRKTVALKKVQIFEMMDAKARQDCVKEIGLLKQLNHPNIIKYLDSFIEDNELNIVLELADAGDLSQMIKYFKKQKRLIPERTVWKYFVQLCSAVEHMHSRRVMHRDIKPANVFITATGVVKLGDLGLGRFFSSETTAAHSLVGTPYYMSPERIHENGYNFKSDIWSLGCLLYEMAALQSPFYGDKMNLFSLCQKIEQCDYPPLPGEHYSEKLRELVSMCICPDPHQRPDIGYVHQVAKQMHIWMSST
Sequence of MAPKAPK2 (human) (P49137 whole entry, looked up): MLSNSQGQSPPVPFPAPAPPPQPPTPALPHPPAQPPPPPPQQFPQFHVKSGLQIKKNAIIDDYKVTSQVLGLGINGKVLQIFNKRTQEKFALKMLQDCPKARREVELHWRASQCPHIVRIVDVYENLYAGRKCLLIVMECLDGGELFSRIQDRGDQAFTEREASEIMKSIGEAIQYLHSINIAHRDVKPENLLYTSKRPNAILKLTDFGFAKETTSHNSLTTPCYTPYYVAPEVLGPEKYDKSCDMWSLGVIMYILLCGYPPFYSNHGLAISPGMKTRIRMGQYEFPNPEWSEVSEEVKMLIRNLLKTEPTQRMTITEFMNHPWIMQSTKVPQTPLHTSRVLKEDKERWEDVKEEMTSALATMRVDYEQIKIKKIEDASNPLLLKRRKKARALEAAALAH
Sequence of PKN1 (human) (Q16512 whole entry, looked up): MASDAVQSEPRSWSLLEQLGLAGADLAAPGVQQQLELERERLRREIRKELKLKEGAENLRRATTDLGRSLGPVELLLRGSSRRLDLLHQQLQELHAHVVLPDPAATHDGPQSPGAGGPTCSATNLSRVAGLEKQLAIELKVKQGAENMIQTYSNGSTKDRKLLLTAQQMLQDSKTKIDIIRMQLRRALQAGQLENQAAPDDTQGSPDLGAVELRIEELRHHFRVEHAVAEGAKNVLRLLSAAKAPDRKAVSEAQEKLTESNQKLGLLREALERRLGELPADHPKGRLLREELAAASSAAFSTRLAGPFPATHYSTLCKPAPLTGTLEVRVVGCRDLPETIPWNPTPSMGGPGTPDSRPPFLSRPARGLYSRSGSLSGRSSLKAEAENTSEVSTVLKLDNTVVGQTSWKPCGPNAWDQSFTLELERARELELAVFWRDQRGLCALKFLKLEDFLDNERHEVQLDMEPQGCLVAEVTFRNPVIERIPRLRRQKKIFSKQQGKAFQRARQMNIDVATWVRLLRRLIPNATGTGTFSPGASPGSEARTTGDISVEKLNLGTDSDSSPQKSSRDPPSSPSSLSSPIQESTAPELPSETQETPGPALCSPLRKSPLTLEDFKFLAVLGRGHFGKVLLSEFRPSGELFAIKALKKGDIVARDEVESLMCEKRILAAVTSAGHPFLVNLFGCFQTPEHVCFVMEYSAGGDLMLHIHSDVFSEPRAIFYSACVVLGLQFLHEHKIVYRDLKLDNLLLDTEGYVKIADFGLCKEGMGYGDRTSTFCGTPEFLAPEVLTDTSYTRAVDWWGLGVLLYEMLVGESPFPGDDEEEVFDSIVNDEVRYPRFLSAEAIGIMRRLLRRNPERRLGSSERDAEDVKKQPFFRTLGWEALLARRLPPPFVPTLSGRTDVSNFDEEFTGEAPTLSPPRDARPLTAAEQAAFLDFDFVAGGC
Sequence of DAPK3 (human) (O43293 whole entry, looked up): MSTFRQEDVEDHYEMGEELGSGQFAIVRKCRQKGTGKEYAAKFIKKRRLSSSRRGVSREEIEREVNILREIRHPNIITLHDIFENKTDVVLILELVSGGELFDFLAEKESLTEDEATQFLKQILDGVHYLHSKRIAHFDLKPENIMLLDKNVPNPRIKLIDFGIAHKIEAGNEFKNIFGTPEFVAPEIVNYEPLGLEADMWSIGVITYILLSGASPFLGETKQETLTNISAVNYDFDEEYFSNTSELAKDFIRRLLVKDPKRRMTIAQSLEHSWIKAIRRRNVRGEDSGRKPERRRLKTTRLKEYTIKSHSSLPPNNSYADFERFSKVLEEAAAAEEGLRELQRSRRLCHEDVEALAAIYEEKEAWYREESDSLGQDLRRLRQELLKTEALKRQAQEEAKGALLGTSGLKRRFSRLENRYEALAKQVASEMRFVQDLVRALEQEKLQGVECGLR
Sequence of CAMKK2 (human) (Q96RR4 whole entry, looked up): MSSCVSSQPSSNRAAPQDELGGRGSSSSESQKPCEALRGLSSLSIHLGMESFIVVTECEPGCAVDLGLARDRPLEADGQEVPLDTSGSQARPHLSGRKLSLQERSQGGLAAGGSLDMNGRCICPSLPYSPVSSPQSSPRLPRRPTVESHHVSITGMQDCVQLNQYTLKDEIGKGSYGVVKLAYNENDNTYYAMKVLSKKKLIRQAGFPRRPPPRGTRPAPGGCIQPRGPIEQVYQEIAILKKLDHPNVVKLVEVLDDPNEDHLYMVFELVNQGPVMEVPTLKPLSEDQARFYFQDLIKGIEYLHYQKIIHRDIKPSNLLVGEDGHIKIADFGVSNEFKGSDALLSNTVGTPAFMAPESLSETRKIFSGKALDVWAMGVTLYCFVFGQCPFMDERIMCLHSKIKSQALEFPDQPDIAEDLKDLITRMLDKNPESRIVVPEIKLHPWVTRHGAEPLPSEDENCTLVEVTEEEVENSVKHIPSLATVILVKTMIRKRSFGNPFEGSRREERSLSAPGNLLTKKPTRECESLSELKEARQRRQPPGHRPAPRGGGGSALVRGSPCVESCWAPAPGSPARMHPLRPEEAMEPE
Sequence of MAPK13 (human) (O15264 whole entry, looked up): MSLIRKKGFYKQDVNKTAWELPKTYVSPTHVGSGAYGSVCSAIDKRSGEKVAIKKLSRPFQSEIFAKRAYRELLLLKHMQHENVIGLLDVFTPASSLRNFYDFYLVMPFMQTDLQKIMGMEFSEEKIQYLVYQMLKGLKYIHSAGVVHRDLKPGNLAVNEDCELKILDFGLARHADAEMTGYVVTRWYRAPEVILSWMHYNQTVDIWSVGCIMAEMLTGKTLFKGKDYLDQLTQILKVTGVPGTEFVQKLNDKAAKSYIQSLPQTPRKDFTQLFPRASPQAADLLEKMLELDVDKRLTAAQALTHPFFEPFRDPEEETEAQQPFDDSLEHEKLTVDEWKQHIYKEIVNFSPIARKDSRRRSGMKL

N#Cc1ccc2ncnc(NCCc3ccc4ccccc4c3)c2c1
kinase still bound, per cent of control (ADCK3 (human)): 100% | kinase still bound, per cent of control (BLK (human)): 65% | kinase still bound, per cent of control (CAMKK2 (human)): 100% | kinase still bound, per cent of control (CDK11B (human)): 99% | kinase still bound, per cent of control (CDK15 (human)): 100% | kinase still bound, per cent of control (CDK18 (human)): 97% | kinase still bound, per cent of control (CHEK1 (human)): 97% | kinase still bound, per cent of control (CHEK2 (human)): 62% | kinase still bound, per cent of control (CSNK1G1 (human)): 83% | kinase still bound, per cent of control (DAPK3 (human)): 74% | kinase still bound, per cent of control [1]: 71% | kinase still bound, per cent of control [2]: 60% | kinase still bound, per cent of control (FER (human)): 100% | kinase still bound, per cent of control (FRK (human)): 100% | kinase still bound, per cent of control (HIPK3 (human)): 78% | kinase still bound, per cent of control [3]: 86% | kinase still bound, per cent of control [4]: 86% | kinase still bound, per cent of control (LCK (human)): 84% | kinase still bound, per cent of control (MAP2K6 (human)): 100% | kinase still bound, per cent of control (MAP3K10 (human)): 100% | kinase still bound, per cent of control (MAP3K11 (human)): 89% | kinase still bound, per cent of control (MAP3K2 (human)): 80% | kinase still bound, per cent of control (MAP4K1 (human)): 81% | kinase still bound, per cent of control (MAP4K5 (human)): 95% | kinase still bound, per cent of control (MAPK13 (human)): 100% | kinase still bound, per cent of control (MAPK9 (human)): 97% | kinase still bound, per cent of control (MAPKAPK2 (human)): 100% | kinase still bound, per cent of control (MAPKAPK5 (human)): 79% | kinase still bound, per cent of control (MARK3 (human)): 95% | kinase still bound, per cent of control (MATK (human)): 100% | kinase still bound, per cent of control (MKNK1 (human)): 64% | kinase still bound, per cent of control (MYLK3 (human)): 79% | kinase still bound, per cent of control (MYLK4 (human)): 81% | kinase still bound, per cent of control (NEK6 (human)): 96% | kinase still bound, per cent of control (PAK6 (human)): 80% | kinase still bound, per cent of control [5]: 100% | kinase still bound, per cent of control (PKN1 (human)): 100% | kinase still bound, per cent of control (RIOK3 (human)): 100% | kinase still bound, per cent of control (SRPK3 (human)): 86% | kinase still bound, per cent of control (STK36 (human)): 100% | kinase still bound, per cent of control (TXK (human)): 94% | kinase still bound, per cent of control [6]: 93% | kinase still bound, per cent of control (WEE2 (human)): 65%
